Measurements reported in BindingDB's records for doi:10.1021/jm500801r (Southern Research Institute, 2014).

assay: Antagonist activity against human D3R expressed in CHO cells assessed as inhibition of quinpirole-induced mitogenesis after 16 hrs by [3H]thymidine uptake assay

Point of comparison: `O=C(NCCCCN1CCN(c2cccc(Cl)c2Cl)CC1)c1cn2ccccc2n1`, IC50 7.2 nM. Against it:
- O=C(NCCCCN1CCN(c2ncnc3ccccc23)CC1)c1cn2ccccc2n1 — 130-fold higher, 940 nM
- CC(C)(C)c1nc(N2CCN(CCCCNC(=O)c3nc4ccccc4[nH]3)CC2)cc(C(F)(F)F)n1 — 29-fold higher, 208 nM
- COc1ccccc1N1CCN(CCCCNC(=O)c2cn3ccccc3n2)CC1 — 2.4-fold lower, 3 nM
